According to US20230022157A1 (Achillion Pharmaceuticals, Inc., priority 2018, published 2023):
Like-named read-outs stand apart in the source and are kept apart here.

Molecular target: T1, Human Factor D (Homo sapiens, UniProt P00746)
T1 construct: purified from human serum; purchased Complement Technology, Inc; host or cells: human serum (natural protein, not recombinant)
Assay: Human Factor D Assay
Assay type: biochemical
Conditions: Human Factor D 80 nM, substrate Z-L-Lys-SBzl, read-out: IC50 (Stars)
How it was run: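 Serum-purified human factor D (80 nM final) preincubated 5 min at room temperature with test compound in 50 mM Tris, 1M NaCl, pH 7.5. Z-L-Lys-SBzl substrate and DTNB then added, each at 100 μM final. IC50 from nonlinear regression of reaction rate against compound concentration.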

T1 sequence (P00746 26-253): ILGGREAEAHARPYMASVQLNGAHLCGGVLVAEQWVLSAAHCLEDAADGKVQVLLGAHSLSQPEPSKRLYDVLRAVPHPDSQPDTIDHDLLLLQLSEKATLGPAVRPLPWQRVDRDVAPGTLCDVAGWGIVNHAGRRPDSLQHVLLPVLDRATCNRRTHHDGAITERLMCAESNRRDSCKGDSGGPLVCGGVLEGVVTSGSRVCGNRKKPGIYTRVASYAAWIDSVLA

Row | Compound | IC50 (Table 2) [nM] | IC50 (assay of Example 3) [nM]
1 | CC(=O)c1nn(CC(=O)N2[C@H](C(=O)Nc3ccc(F)c(Br)n3)C[C@@]3(C)C[C@@H]23)c2c(C)cc(-c3cnc(CO)nc3)cc12 [Compound 120, (1R,3S,5R)-2-(2-(3-acetyl-5-(2-(hydroxymethyl)pyrimidin-5-yl)-7-methyl-1H-indazol-1-yl)acetyl)-N-(6-bromo-5-fluoropyridin-2-yl)-5-methyl-2-azabicyclo[3.1.0]hexane-3-carboxamide] | < 1000 | 
2 | CC(=O)c1nn(CC(=O)N2[C@H](C(=O)NC(C)Cc3cccs3)C[C@@]3(C)C[C@@H]23)c2c(C)cc(-c3cnc(C)nc3)cc12 (stereo partly drawn) [Compound 182, (1R,3S,5R)-2-{2-[3-acetyl-7-methyl-5-(2-methylpyrimidin-5-yl)indazol-1-yl]acetyl}-5-methyl-N-[1-(thiophen-2-yl)propan-2-yl]-2-azabicyclo[3.1.0]hexane-3-carboxamide] | < 1000 | 
3 | CC(=O)c1nn(CC(=O)N2[C@H](C(=O)Nc3nc(C(F)(F)F)ccc3C)C[C@@]3(C)C[C@@H]23)c2c(C)cc(-c3cnc(C)nc3)cc12 [Compound 236, (1R,3S,5R)-2-(2-(3-acetyl-7-methyl-5-(2-methylpyrimidin-5-yl)-1H-indazol-1-yl)acetyl)-5-methyl-N-(3-methyl-6-(trifluoromethyl)pyridin-2-yl)-2-azabicyclo[3.1.0]hexane-3-carboxamide] | < 1000 | 
4 | CC(=O)c1nn(CC(=O)N2[C@H](C(=O)Nc3nc(Br)ccc3C)C[C@@]3(CO)C[C@@H]23)c2c(C)cc(-c3cnc(C)nc3)cc12 [Compound 21, (1R,3S,5S)-2-(2-(3-Acetyl-7-methyl-5-(2-methylpyrimidin-5-yl)-1H-indazol-1-yl)acetyl)-N-(6-bromo-3-methylpyridin-2-yl)-5-(hydroxymethyl)-2-azabicyclo[3.1.0]hexane-3-carboxamide] |  | < 1000
